Drawing on patent publication US20260015352A1, “METHYLTRANSFERASE INHIBITOR AND USE THEREOF” (CYTOSINLAB THERAPEUTICS CO., LTD., priority 2022, published 2026), this text covers IC50 for 49 compounds.

pIC50: −log10 of the molar value.

In the assay the test system is G401 cells. As to the kind of experiment: G401 ELISA test. The class given is cell-based. The settings on record: Homo sapiens, G-401; G401 cells treated with compounds for 72 hours; ELISA detecting K27 and H3; read-out: G401_ELISA IC50. Here is the method:
• Plate Reader: Envision (Perkinelmner); plate shaker: IKA MTS 2/4; plate Washer: BioTek microplate wisher 405 select; Cell counter: Counterstar (Ruiyu-biotech); Cell culture incubator: MCO-15AC (ThermoFisher); Pipette: BioHit Multichannel. Pipette: 0.2-10 μL, 10-300 μL, 50-1200 μL; Centrifuge: Thermo Centrifuge ST 40R; Pure water system: Millipore Milli-Q Reference system; Refrigerator: Haier −80 degree, −20 degree, and 4-degree refrigerators; cell cryopreservation box: Mr. Frosty™ Gradient Cooling Box Cat #5100-0001
• McCoys 5A (Modified) culture medium (ATCC); FBS (Gibco); 0.25% Trypsin/EDTA (Gibco); PBS (Hyclone); Penicillin/Streptomycin(100×) (Gibco); DMSO (Sigma); 384 cell culture plate (Corning); 384 detection plate (Greiner); 96 well plate (compound dilution) (Haimen, Qunchao); T75 Cell Culture Bottle (Corning)
G401 cells were seeded in a 384-well cell culture plate and incubated overnight at 37° C. in a 5% CO2 cell culture incubator, after which the cells were treated with compounds of different concentrations for 72 hours. The 384-well cell culture plate was taken out and upside down in a centrifuge to centrifugeat 300 rpm for 1 minute. After centrifugation, the 384-well cell culture plate was washed twice with PBS, added with lysis solution and lysed for 60 minutes. Then neutralization buffer was added for mixing and incubation was continued for 30 minutes. 20 ul (for detecting K27) and 10 ul (for detecting H3) of cell lysate were extracted from the 384-well cell culture plate and transferred to a 384 ELISA detection plate and incubate overnight at 4° C. The next day, the 384 ELISA plate was taken out and washed 5 times with TBST in a microplate washer. Then, the plate was added with a blocking solution and sealed at room temperature for 1 hour. The blocking solution was discarded and the primary antibody was added and then the plate was incubated at room temperature for 1 hour. After incubation, the plate was washed with TBST 5 times in a microplate washer, then added with secondary antibody and incubated at room temperature for 1 hour. After incubation, the plate was washed with TBST 5 times in a microplate washer, and finally added with color developer for color development. The plate was read with Envision plate reader. The obtained data was converted into inhibition rate using the following calculation method: % Inhibition rate=100−100*(compound absorbance−positive control absorbance)/(negative control absorbance−positive control absorbance), and then the inhibition rate data was subjected to curve fitting using the “logarithmic (inhibitor) and reaction-variable slope (four parameters)” model in GraphPad Prism 5 software.
The inhibition rate of the compound was calculated as follows: […]
The compounds of the present invention were tested according to the above experimental method, and some results were shown in Table 3. The test results were classified by A, B, and C, wherein A represents IC50≤0.1 uM; B represents 0.1 uM<IC50≤1 uM; C represents IC50>1 uM
For orientation: In an ELISA, binding on a coated surface is turned into a signal by an enzyme label.

As to `COc1nccc2ccc(Nc3ccc(CNc4cnc(C(C)(C)C(=O)NC5COC5)cn4)cc3)nc12` [PA038], the negative-log IC50 (pIC50) (commonly the negative decadic logarithm of the IC50, by convention in mol/L) is below 6.00.
Under `COc1nccc2ccc(Nc3ccc(C(C)Nc4ncc(CC(=O)NC5COC5)cn4)cc3F)nc12` (stereo not shown) [PA204] stands at least 7.00; under `COc1nccc2ccc(Nc3ccc([C@H](C)Nc4ncc(N5CCC(C#N)CC5)cn4)cc3F)nc12` [PA214], 6.00 to 7.00.
Regarding `COc1nccc2ccc(Nc3ccc(CNc4ncc(CC(=O)N5CCC(C#N)CC5)cn4)cc3F)nc12` [PA224], the pIC50 is 6.00 to 7.00.
With `C[C@@H](C(=O)NC1COC1)c1cnc(NCc2ccc(Nc3ccc4ccnc(Cl)c4n3)cc2)nc1` [PA055] the figure was below 6.00.
With `COc1nccc2ccc(NC34CCC(CNc5ncc(CC(=O)NC6COC6)cn5)(CC3)OC4)nc12` [PA229] the figure was 6.00 to 7.00; with `CC(C(=O)N(CCC#N)CCC#N)c1cnc(N[C@@H](C)C23CCC(Nc4ccc5ccnc(Cl)c5n4)(CC2)CC3)nc1` (stereo partly shown) [PA202], at least 7.00; with `COc1nccc2ccc(Nc3ccc([C@H](C)Nc4ncc(CNCC5CC(F)(F)C5)cn4)cc3F)nc12` [PA240], 6.00 to 7.00.
With `COc1nccc2ccc(NC34CCC(CNc5ncc([C@@H](C)C(=O)NC6COC6)cn5)(CC3)CC4)nc12` [PA077] the figure was at least 7.00; with `C[C@H](Nc1ncc(C(O)C(=O)NC2COC2)cn1)C12CCC(Nc3ccc4ccnc(Cl)c4n3)(CC1)CC2` (stereo partly shown) [PA174], at least 7.00.
As for `COc1nccc2ccc(Nc3ccc(CNc4ncc(CC(=O)N5CCC(O)CC5)cn4)cc3F)nc12` [PA230], the pIC50 is 6.00 to 7.00.
Under `COc1nccc2ccc(Nc3ccc([C@H](C)Nc4ncc(CC5CCS(=O)(=O)CC5)cn4)cc3F)nc12` [PA195] stands at least 7.00; under `CC(Nc1ncc(CC(=O)N(CCC#N)C2COC2)cn1)C12CCC(Nc3ccc4ccnc(Cl)c4n3)(CC1)CC2` (stereo not shown) [PA171], at least 7.00.
With `COc1nccc2ccc(Nc3ccc([C@H](C)Nc4ncc(CNC5CC(F)(F)C5)cn4)cc3F)nc12` [PA201] the figure was at least 7.00.
With `CCN(Cc1cnc(N[C@@H](C)c2ccc(Nc3ccc4ccc(C)c(Cl)c4n3)c(F)c2)nc1)C1CS(=O)(=O)C1` [PA267] the figure was at least 7.00; with `COc1nccc2ccc(NC34CCC(CNc5ncc(C(C)C(=O)NC6COC6)cn5)(CC3)CC4)nc12` (stereo not shown) [PA076], at least 7.00; with `COc1nccc2ccc(Nc3ccc(CNc4ncc(CC(=O)OC(C)(C)C)cn4)cc3)nc12` [PA007], below 6.00.
For the compound `C[C@H](C(=O)NC1COC1)c1cnc(NCc2ccc(Nc3ccc4ccnc(Cl)c4n3)cc2)nc1` [PA054], the pIC50 is 6.00 to 7.00.
With `COc1nccc2ccc(Nc3ccc(CNc4ncc(CN5CCS(=O)(=O)CC5)cn4)cc3F)nc12` [PA259] the figure was at least 7.00.
With `C[C@H](Nc1ncc(C=CC2CS(=O)(=O)C2)cn1)C12CCC(Nc3ccc4ccnc(Cl)c4n3)(CC1)CC2` [PA164] the figure was at least 7.00; with `COc1nccc2ccc(Nc3ccc([C@H](C)Nc4ncc(CNC5CCS(=O)(=O)C5)cn4)cc3F)nc12` (stereo partly shown) [PA182], at least 7.00.
With `COc1nccc2ccc(Nc3ccc([C@H](C)Nc4ncc(CNC5CCS(=O)(=O)CC5)cn4)cc3F)nc12` [PA261] the figure was at least 7.00; with `COc1nccc2ccc(NC34CCC(C(C)Nc5ncc(CC(=O)NC6COC6)cn5)(CC3)CC4)nc12` (stereo not shown) [PA180], at least 7.00; with `COc1nccc2ccc(Nc3ccc([C@H](C)Nc4ncc(C(C)C(=O)NC5COC5)cn4)cc3F)nc12` (stereo partly shown) [PA190], at least 7.00.
`CC(c1cnc(N[C@@H](C)C23CCC(Nc4ccc5ccnc(Cl)c5n4)(CC2)CC3)nc1)N1CCS(=O)(=O)CC1` (stereo partly shown) [PA184]: the pIC50 is at least 7.00.
Under `COc1nccc2ccc(Nc3ccc(CNc4ncc([C@@H](C)C(=O)NC5COC5)cn4)cc3)nc12` (single isomer, unassigned) [PA043, 2-[2-[[4-[(8-methoxy-1,7-naphthyridin-2-yl)amino]phenyl]methylamino]pyrimidin-5-yl]-N-(oxetan-3-yl) propanamide] stands 6.00 to 7.00; under `O=C(Cc1cnc(NCC23CC(Nc4ccc5ccnc(Cl)c5n4)(C2)C3)nc1)NC1COC1` [PA069], below 6.00.
With `COc1nccc2ccc(Nc3ccc([C@H](C)Nc4ccc(CC(=O)NC5COC5)cn4)cc3F)nc12` [PA233] the figure was 6.00 to 7.00; with `N#Cc1nccc2ccc(Nc3ccc(CNc4ncc(CC(=O)NC5COC5)cn4)cc3)nc12` [PA074], below 6.00.
In the case of `COc1nccc2ccc(Nc3ccc(CNc4ncc(CNCc5cnco5)cn4)cc3F)nc12` [PA203], the negative logarithm of the IC50 (pIC50) is at least 7.00.
Under `COc1nccc2ccc(Nc3ccc(CNc4ncc(CNCc5ccon5)cn4)cc3F)nc12` [PA221] stands 6.00 to 7.00.
With `C[C@H](Nc1ncc(CNCc2cnoc2)cn1)C12CCC(Nc3ccc4ccnc(Cl)c4n3)(CC1)CC2` [PA188] the figure was at least 7.00.
With `COc1nccc2ccc(Nc3ccc(CNc4ncc(CCNC5COC5)cn4)cc3)nc12` [PA211] the figure was 6.00 to 7.00; with `COc1nccc2ccc(Nc3ccc(CNc4ncc(CNCCO)cn4)cc3F)nc12` [PA242], below 6.00; with `COc1nccc2ccc(Nc3ccc(C(CO)Nc4ncc(CC(=O)NC5COC5)cn4)cc3F)nc12` (stereo not shown) [PA236], 6.00 to 7.00.
Take `Cc1ccc2ccc(Nc3ccc([C@H](C)Nc4ncc(CNC5CS(=O)(=O)C5)cn4)cc3F)nc2c1Cl` [PA167, (S)-3-(2-(1-(4-(8-chloro-7-methylquinolin-2-amino)-3-fluorophenyl)ethylamino)pyrimidin-5-ylmethylamino)thietan-1,1-dione]: the negative-log IC50 (pIC50) is at least 7.00.
With `C[C@H](Nc1ncc(CNC2CS(=O)(=O)C2)cn1)c1ccc(Nc2ccc3ccnc(Cl)c3n2)c(F)c1` (single isomer, unassigned) [PA248] the figure was below 6.00; with `COc1nccc2ccc(Nc3ccc([C@H](CO)Nc4ncc(CC(=O)NC5COC5)cn4)cc3F)nc12` [PA218], 6.00 to 7.00; with `COc1nccc2ccc(Nc3ccc([C@H](C)Nc4ncc(CCNC5CC(F)(F)C5)cn4)cc3F)nc12` [PA223], 6.00 to 7.00.
With `CC(C(=O)NC1COC1)c1cnc(NCc2ccc(Nc3ccc4ccnc(Cl)c4n3)cc2)nc1` (stereo not shown) [PA044] the figure was 6.00 to 7.00; with `COc1nccc2ccc(Nc3ccc(CNc4ncc(CNCC5CCOC5)cn4)cc3F)nc12` (stereo not shown) [PA220], 6.00 to 7.00; with `COc1nccc2ccc(Nc3ccc([C@H](C)Nc4ncc(N(C)C(=O)NC5COC5)cn4)cc3F)nc12` [PA217], 6.00 to 7.00.
As for `COc1nccc2ccc(Nc3ccc([C@H](C)Nc4ncc(CNCCS(C)(=O)=O)cn4)cc3F)nc12` [PA260], the pIC50 was at least 7.00.
As to `O=C(Cc1ccc(NCC23CCC(Nc4ccc5ccnc(Cl)c5n4)(CC2)CC3)nc1)NC1COC1` [PA228], the pIC50 is 6.00 to 7.00.
For the compound `COc1nccc2ccc(Nc3ccc(CNc4ncc(CNCc5cnoc5)cn4)cc3F)nc12` [PA198], the pIC50 was at least 7.00.
With `COc1nccc2ccc(Nc3ccc(CNc4ncc(NCc5cnoc5)cn4)cc3F)nc12` [PA208] the figure was 6.00 to 7.00; with `O=C(Nc1ccc(NCC23CCC(Nc4ccc5ccnc(Cl)c5n4)(CC2)CC3)nc1)NC1COC1` [PA250], below 6.00; with `COc1nccc2ccc(Nc3ccc([C@H](C)Nc4ncc(C(C)C5CCS(=O)(=O)CC5)cn4)cc3F)nc12` (stereo partly shown) [PA262], at least 7.00.
With `COc1nccc2ccc(Nc3ccc(CNc4ncc(CNCc5cnn(C)c5)cn4)cc3F)nc12` [PA249], the negative-log IC50 (pIC50) was below 6.00.
